The nature of this assay: effect of including leucine in the patch formula on appetite levels. Type of assay: in vivo. The note with it: inclusion of leucine in the formula of the adhesive matrix; found experimentally, no method or data given. The source says:
In an exemplary embodiment, adhesive matrix 130 may further include an anti-inflammatory. While dimethyl sulfoxide and menthol may in and of themselves act as anti-inflammatories, additional ingredients acting as dedicated anti-inflammatories may be added. For the purposes of this specification, “anti-inflammatory” is used to mean any medication, compound, or ingredient recognized by the FDA as useful for anti-inflammatory purposes. Yet further, adhesive matrix 130 may include amino acids. Leucine is an exemplary amino acid which may be incorporated into the formula. Leucine may function in the patch to synthesize sterols, and may also act to regulate blood pressure, energy levels, and hormone secretion. […] Adhesive matrix 130 may further comprises glycerin. Glycerin may act as a plasticizer and humectant to preserve the flexibility and formulaic integrity of adhesive matrix 130, and may also provide additional benefits of relieving skin irritation and reducing interference with skin oils when transdermal patch 100 is placed in contact with skin.

As for `CC(C)C[C@H](N)C(=O)O` [leucine, Leucine], the appetite levels result was “reduce appetite levels”.

Values taken from patent publication US20250090477A1, “TRANSDERMAL PATCH PROVIDING IMPROVED PERMEABILITY AND COMPOSITION” (HydraPatch Inc., priority 2019, published 2025).
